The numbers were not newly measured in US6465497B2, “Arylthiazolidinedione derivatives” (Merck & Co., Inc., priority 1999, dated 2002), which cites them from elsewhere.

Each structure is given as a SMILES string.

One series addresses T1, PPARγ (Homo sapiens, UniProt P37231).
T1 sequence (P37231 1-505): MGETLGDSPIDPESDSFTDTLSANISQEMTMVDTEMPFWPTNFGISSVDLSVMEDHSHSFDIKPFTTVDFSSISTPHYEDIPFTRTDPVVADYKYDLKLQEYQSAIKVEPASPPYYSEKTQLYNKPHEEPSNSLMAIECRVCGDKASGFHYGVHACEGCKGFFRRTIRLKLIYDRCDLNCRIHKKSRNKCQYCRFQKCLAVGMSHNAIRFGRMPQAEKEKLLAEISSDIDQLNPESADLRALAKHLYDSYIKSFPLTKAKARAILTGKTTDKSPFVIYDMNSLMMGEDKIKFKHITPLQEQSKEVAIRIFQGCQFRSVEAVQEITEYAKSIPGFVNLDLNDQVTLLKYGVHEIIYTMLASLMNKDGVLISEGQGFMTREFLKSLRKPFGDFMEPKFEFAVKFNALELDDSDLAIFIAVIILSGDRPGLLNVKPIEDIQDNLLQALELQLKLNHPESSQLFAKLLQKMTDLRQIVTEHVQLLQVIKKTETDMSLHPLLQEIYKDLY
Conditions: subsequent studies; Willson et al, J. Med. Chem. 1996.

A further series has as its system ob/ob mice. Particulars: Cantello et al, J. Med. Chem. 1994.
For a further series, the system named is diabetic mouse model. Conditions: Sohda et al, Chem. Pharm. Bull. 1982.

For the compound `CN(CCOc1ccc(C2SC(=O)NC2=O)cc1)c1nc2ccccc2o1` (stereo not drawn) [(1), 5-[4-[2-(2-benzoxazolylmethylamino)ethoxy]phenyl]-2,4-thiazolidinedione], on PPARγ, the “amounts required for PPARγ activation” value is “relatively high amounts”. For the same compound, the antihyperglycemic activity result in the series with ob/ob mice is on record as “no antihyperglycemic activity”.
For the compound `O=C1NC(=O)C(c2ccc(OCCc3ccccc3)cc2)S1` (stereo not drawn) [(2), 5-[4-(phenylethoxy)phenyl]-2,4-thiazolidinedione], in the series on diabetic mouse model, the antihyperglycemic effect result was “no antihyperglycemic effect”.
